# Laboratory results as given in patent US10745395B2, “Compounds for their use as drugs for the treatment and/or the prevention of infection(s) caused by biofilm-forming bacteria” (CENTRE NATIONAL DE LA RECHERCHE SCIENTIFIQUE, priority 2014, dated 2020).
# Columns and labels:
# Type in all cases: cell-based, Pseudomonas aeruginosa
# [1] = system: P. aeruginosa strain PAR 50; assay: Antibiotic susceptibility test, disk diffusion (EUCAST); parameters: key: R means resistant to the antibiotic; S means sensitive to the antibiotic; conditions: disk load given per antibiotic
# Method: (§1) All tests were performed on Pseudomonas aeruginosa strains coded: PAR 5, PAR 20, PAR 50, isolated from suppurated wounds of three male patients with chronic diabetic foot infections.
# (§2) Drug resistance of the P. aeruginosa strains were tested using the disk diffusion method. Interpretation of the drug resistance of the Pseudomonas aeruginosa strains was done in accordance with the EUCAST standards (see the reference below for more information): http://www.eucast.org/fileadmin/src/media/PDFs/EUCAST_files/Breakpoint tables/Breakpoint_table_v_3.1.pdf.
# (§3) To determine the drug resistance of the strains, the following antibiotics were used: amikacin, ciprofloxacin, gentamicin, piperacillin, tobramycin, ceftazidime (Oxoid, Basingstoke, UK). R means resistant to the antibiotic and S means sensitive to the antibiotic.
# [2] = system: P. aeruginosa strain PAR 5; assay: as above; parameters: key: R means resistant to the antibiotic; S means sensitive to the antibiotic; conditions: disk load given per antibiotic
# Method: as §1, §2, §3
# [3] = system: P. aeruginosa strain PAR 20; assay: as above; parameters: key: R means resistant to the antibiotic; S means sensitive to the antibiotic; conditions: disk load given per antibiotic
# Method: as §1, §2, §3
# [4] = system: P. aeruginosa strain PAR 5 biofilm; assay: Reduction of biofilm growth (percent vs culture control)
# In short: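 Iminosugars at 0.9 mM final were added to P. aeruginosa in TSB either at seeding (early biofilm, 48 h at 37° C) or 48 h after bacterial adherence (mature biofilm). Biofilm stained with Congo Red and read spectrophotometrically; percent decrease in thickness is the mean of 3 measurements relative to untreated control (100%).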
# [5] = system: P. aeruginosa strain PAR 50 biofilm; assay: Mature biofilm model, Congo red staining; conditions: for absorbance (Congo red, biofilm development): mature biofilm, compound added 48 h after induction of biofilm
# In short: (§4)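 Compounds added 48 h after bacterial adherence in 96-well plates; biofilm checked at 48, 48.5, 56, 72 and 96 h. Biomass stained with 0.1% Congo red for 30 min at room temperature, washed, absorbance read at 492 nm. Triplicate means ±SD.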
# [6] = system: P. aeruginosa strain PAR 20 biofilm; assay: Mature biofilm model, Congo red staining; conditions: for absorbance (Congo red, biofilm development): mature biofilm, compound added 48 h after induction of biofilm
# In short: as §4
# [7] = system: P. aeruginosa strain PAR 5 biofilm; assay: Mature biofilm model, Congo red staining; conditions: for absorbance (Congo red, biofilm development): mature biofilm, compound added 48 h after induction of biofilm
# In short: as §4
# [8] = system: P. aeruginosa strain PAR 50; assay: Number of viable bacteria in early and mature biofilm (viable count)
# In short: (§5)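 Biofilm contents of P. aeruginosa PAR 5, PAR 20 or PAR 50 wells sampled at 0-96 h, iminosugars added at 48 h. Decimal dilutions in TSB were plated on McConkey agar, incubated 24 h at 37° C., and colonies counted as log CFU/ml; detection limit 100 CFU/ml.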
# [9] = system: P. aeruginosa strain PAR 5; assay: as above
# In short: as §5
# [10] = system: P. aeruginosa strain PAR 20; assay: as above
# In short: as §5
# [11] = system: P. aeruginosa strain PAR 20 biofilm; assay: Reduction of biofilm growth (percent vs culture control)
# [12] = system: P. aeruginosa strain PAR 50 biofilm; assay: Early biofilm model, Congo red staining; conditions: for absorbance (Congo red, biofilm formation): early biofilm, 0.9 mM, 492 nm
# In short: (§6)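 Biofilm set up from 1×10^8 CFU/ml P. aeruginosa in TSB, centrifuged 10 min at 2000 rpm; iminosugars at 0.9 mM added at seeding, incubated up to 48 h at 37° C. Biofilm stained with 0.1% Congo red for 30 min and read at 492 nm at 0, 0.5, 8, 24 and 48 h, with viable counts in parallel; TSB-only cultures served as control.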
# [13] = system: P. aeruginosa strain PAR 20 biofilm; assay: Early biofilm model, Congo red staining; conditions: for absorbance (Congo red, biofilm formation): early biofilm, 0.9 mM, 492 nm
# In short: as §6
# [14] = system: P. aeruginosa strain PAR 5 biofilm; assay: Early biofilm model, Congo red staining; conditions: for absorbance (Congo red, biofilm formation): 0.9 mM, 492 nm
# In short: as §6
# [15] = system: P. aeruginosa strain PAR 50 biofilm; assay: Reduction of biofilm growth (percent vs culture control)
# In short: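 Biofilms grown in TSB at 37 °C; compounds at 0.9 mM final added at inoculation (early biofilm, 48 h) or 48 h after bacterial adherence (mature biofilm). Congo Red-stained biofilm read by spectrophotometry, mean of 3 measurements; reduction expressed as percent versus untreated control set to 100%.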
# [16] = in comparison with culture control
compound,measurement,setting,value
CC(C)(O/N=C(\C(=O)N[C@@H]1C(=O)N2C(C(=O)[O-])=C(C[n+]3ccccc3)CS[C@H]12)c1csc(N)n1)C(=O)O [Ceftazidime],Antibiotic susceptibility (according to EUCAST),[1],S
same,Antibiotic susceptibility (according to EUCAST),[2],R
same,Antibiotic susceptibility (according to EUCAST),[3],S
CCN1CCN(C(=O)N[C@@H](C(=O)N[C@@H]2C(=O)N3[C@@H]2SC(C)(C)[C@@H]3C(=O)O)c2ccccc2)C(=O)C1=O [Piperacillin],Antibiotic susceptibility (according to EUCAST),[1],R
same,Antibiotic susceptibility (according to EUCAST),[2],S
same,Antibiotic susceptibility (according to EUCAST),[3],S
NC[C@H]1O[C@H](O[C@H]2[C@H](O)[C@@H](O[C@H]3O[C@H](CO)[C@@H](O)[C@H](N)[C@H]3O)[C@H](N)C[C@@H]2N)[C@H](N)C[C@@H]1O [Tobramycin],Antibiotic susceptibility (according to EUCAST),[1],R
same,Antibiotic susceptibility (according to EUCAST),[2],S
same,Antibiotic susceptibility (according to EUCAST),[3],S
Gentamicin,Antibiotic susceptibility (according to EUCAST),[1],R
same,Antibiotic susceptibility (according to EUCAST),[2],S
same,Antibiotic susceptibility (according to EUCAST),[3],S
O=C(O)c1cn(C2CC2)c2cc(N3CCNCC3)c(F)cc2c1=O [Ciprofloxacin],Antibiotic susceptibility (according to EUCAST),[1],S
same,Antibiotic susceptibility (according to EUCAST),[2],S
same,Antibiotic susceptibility (according to EUCAST),[3],S
"CCCCCC[C@H]1NC[C@@H](O)[C@H](O)[C@H]1O [Compound 1, α-1-C-hexyl-1,5-dideoxy-1,5-imino-D-xylitol]",reduction of biofilm growth,[4]; 8 hours of incubation,about 90%
same,reduction of biofilm growth,[4]; 24 hours of incubation,about 90%
same,reduction of biofilm growth,[4]; 48 hours of incubation,about 25%
same,reduction of biofilm growth,[4]; 72 hours of incubation,about 10%
same,effect on biofilm growth,[4]; notably an early biofilm,can reduce the biofilm growth
same,influence on mature biofilm formation,[5],weak influence
same,"absorbance (Congo red, biofilm development)",[5]; 48 hours,about 1.6 a.u.
same,"absorbance (Congo red, biofilm development)",[5]; 56 hours,about 1.5 a.u.
same,"absorbance (Congo red, biofilm development)",[5]; 72 hours,about 2.4 a.u.
same,"absorbance (Congo red, biofilm development)",[5]; 96 hours,about 1.9 a.u.
same,influence on mature biofilm formation,[6],weak influence
same,"absorbance (Congo red, biofilm development)",[6]; 48 hours,about 0.75 a.u.
same,"absorbance (Congo red, biofilm development)",[6]; 56 hours,about 0.6 a.u.
same,"absorbance (Congo red, biofilm development)",[6]; 72 hours,about 1.5 a.u.
same,"absorbance (Congo red, biofilm development)",[6]; 96 hours,about 1.0 a.u.
same,influence on mature biofilm formation,[7],weak influence
same,"absorbance (Congo red, biofilm development)",[7]; 48 hours,about 0.7 a.u.
same,"absorbance (Congo red, biofilm development)",[7]; 56 hours,about 1.1 a.u.
same,"absorbance (Congo red, biofilm development)",[7]; 72 hours,about 1.25 a.u.
same,"absorbance (Congo red, biofilm development)",[7]; 96 hours,about 0.5 a.u.
same,number of viable P. aeruginosa,"[8]; early biofilm, 0 h",8 × 10^7 CFU/ml
same,number of viable P. aeruginosa,"[8]; early biofilm, 8 h",2 × 10^8 CFU/ml
same,number of viable P. aeruginosa,"[8]; early biofilm, 24 h",4 × 10^8 CFU/ml
same,number of viable P. aeruginosa,"[8]; early biofilm, 48 h",3 × 10^8 CFU/ml
same,number of viable P. aeruginosa,"[8]; mature biofilm, 56 h",2 × 10^9 CFU/ml
same,number of viable P. aeruginosa,"[8]; mature biofilm, 72 h",1 × 10^9 CFU/ml
same,number of viable P. aeruginosa,"[8]; mature biofilm, 96 h",1 × 10^9 CFU/ml
same,number of viable P. aeruginosa,"[9]; early biofilm, 0 h",2 × 10^6 CFU/ml
same,number of viable P. aeruginosa,"[9]; early biofilm, 8 h",3 × 10^7 CFU/ml
same,number of viable P. aeruginosa,"[9]; early biofilm, 24 h",9 × 10^7 CFU/ml
same,number of viable P. aeruginosa,"[9]; early biofilm, 48 h",1 × 10^8 CFU/ml
same,number of viable P. aeruginosa,"[9]; mature biofilm, 56 h",3 × 10^8 CFU/ml
same,number of viable P. aeruginosa,"[9]; mature biofilm, 72 h",2 × 10^8 CFU/ml
same,number of viable P. aeruginosa,"[9]; mature biofilm, 96 h",3 × 10^8 CFU/ml
same,number of viable P. aeruginosa,"[10]; early biofilm, 0 h",4 × 10^6 CFU/ml
same,number of viable P. aeruginosa,"[10]; early biofilm, 8 h",7 × 10^7 CFU/ml
same,number of viable P. aeruginosa,"[10]; early biofilm, 24 h",1 × 10^8 CFU/ml
same,number of viable P. aeruginosa,"[10]; early biofilm, 48 h",4 × 10^8 CFU/ml
same,number of viable P. aeruginosa,"[10]; mature biofilm, 56 h",6 × 10^7 CFU/ml
same,number of viable P. aeruginosa,"[10]; mature biofilm, 72 h",5 × 10^7 CFU/ml
same,number of viable P. aeruginosa,"[10]; mature biofilm, 96 h",1 × 10^8 CFU/ml
same,reduction of biofilm growth,[11]; 8 hours of incubation,about 30%
same,reduction of biofilm growth,[11]; 24 hours of incubation,about 40%
same,reduction of biofilm growth,[11]; 48 hours of incubation,about 40%
same,reduction of biofilm growth,[11]; 72 hours of incubation,about 0%
same,effect on biofilm growth,[11]; notably an early biofilm,can reduce the biofilm growth
same,"absorbance (Congo red, biofilm formation)",[12]; 8 hours,about 0.5 a.u.
same,"absorbance (Congo red, biofilm formation)",[12]; 24 hours,about 0.8 a.u.
same,"absorbance (Congo red, biofilm formation)",[12]; 48 hours,about 0.9 a.u.
same,effect on formation of an early biofilm,[12]; [16],inhibit the formation of an early biofilm
same,"absorbance (Congo red, biofilm formation)",[13]; 8 hours,about 1.0 a.u.
same,"absorbance (Congo red, biofilm formation)",[13]; 24 hours,about 1.0 a.u.
same,"absorbance (Congo red, biofilm formation)",[13]; 48 hours,about 0.75 a.u.
same,effect on formation of an early biofilm,[13]; [16],inhibit the formation of an early biofilm
same,"biofilm formation at 8 hours, 24 hours and 48 hours",[14]; early biofilm,no biofilm formation
same,"absorbance (Congo red, biofilm formation)","[14]; early biofilm, 8 hours",about 0.25 a.u.
same,"absorbance (Congo red, biofilm formation)","[14]; early biofilm, 24 hours",about 0.25 a.u.
same,"absorbance (Congo red, biofilm formation)","[14]; early biofilm, 48 hours",about 0.25 a.u.
same,effect on formation of an early biofilm,[14]; [16],inhibit the formation of an early biofilm
same,reduction of biofilm growth,[15]; 8 hours of incubation,about 30%
same,reduction of biofilm growth,[15]; 24 hours of incubation,about 30%
same,reduction of biofilm growth,[15]; 48 hours of incubation,about 0%
same,reduction of biofilm growth,[15]; 72 hours of incubation,about 0%
same,effect on biofilm growth,[15]; notably an early biofilm,can reduce the biofilm growth
NCC[C@H](O)C(=O)N[C@@H]1C[C@H](N)[C@@H](O[C@H]2O[C@H](CN)[C@@H](O)[C@H](O)[C@H]2O)[C@H](O)[C@H]1O[C@H]1O[C@H](CO)[C@@H](O)[C@H](N)[C@H]1O [Amikacin],Antibiotic susceptibility (according to EUCAST),[1],R
same,Antibiotic susceptibility (according to EUCAST),[2],S
same,Antibiotic susceptibility (according to EUCAST),[3],S
